Data on 1 molecule can be found in publication PMC6349869, “The palladacycle complex AJ-5 induces apoptotic cell death while reducing autophagic flux in rhabdomyosarcoma cells” (Cell Death Discovery, 2019).

Data set [1] in a line: Pharmacokinetics in whole blood of healthy mice. It is filed as in vivo, MF1 mice. Particulars: for Cmax: measured as Pd. The method, then:
Pharmacokinetic parameters of AJ-5 were determined after IV, IP and PO dosing to MF1 nude mice randomly divided into groups. AJ-5 was prepared in the respective formulations immediately prior to dosing. For the IV group, the compound was made up in a mixture of 10% DMSO and 90% of an IV mixture, which consisted of 60% propylene glycol, 10% ethanol and 30% polyethylene glycol. For the PO group, AJ-5 was dissolved in DMSO and a hydroxypropylmethylcellulose solution (0.5% in water) containing 0.2% Tween 80 in a ratio of 1:9. For the IP group, AJ-5 was dissolved in 10% DMSO and 90% phosphate buffer solution. Mice were permitted access to food and water ad libitum. AJ-5 was administered (100 μL) by oral gavage at a dose of 20 mg/kg (n = 3), intravenously into the penile dorsal vein at a dose of 2 mg/kg (n = 2) and intraperitoneally at a dose of 2 mg/kg (n = 3).
Blood samples (20 μL per sample) were collected by tail tip bleeding in lithium heparin tubes at predetermined time points to evaluate the kinetic profile over 24 h. Samples were stored at −80 °C until analysis. Blood samples together with calibration standards and quality controls were quantified using inductively coupled plasma mass spectrometry. All results reported are for palladium (Pd). Pharmacokinetic parameters of the AJ-5 complex were determined using non-compartmental analysis in PK Solutions 2.0 (Summit Research Systems, Montrose CO, USA).

For another data set, the system named is RH30 cells. As to the kind of experiment: Autophagic flux by western blotting (p62; LC3II with bafilomycin A1), RH30. Format: cell-based, human. The method, then: AJ-5, synthesized as previously described, was dissolved in dimethyl sulfoxide (DMSO) (D8418; Sigma Aldrich) to give a 5 mM AJ-5 stock which was stored at room temperature (RT) and used within 5 days. AJ-5 was diluted in cell culture medium to achieve the desired final concentration and a vehicle control (DMSO) of the same concentration was prepared simultaneously. Cells were treated at a confluency of 60%. For western blot experiments to determine autophagy flux, cells were treated with 200 nM bafilomycin A1 (B1793; Sigma Aldrich) for 2 h post AJ-5 treatment. Doxorubicin (z/26/0167; Teva Pharmaceutical Industries Ltd, Israel) was used as a positive control in Caspase-Glo experiments at a concentration of 0.5 µM.
Cells were lysed at 4 °C in whole-cell lysis buffer (0.125 M Tris-HCl pH 6.8, 4% SDS, 0.2% glycerol, 0.1% β-mercaptoethanol and a pinch of bromophenol blue) and boiled for 10 min. Proteins were resolved by SDS-PAGE (6–15% gels) and transferred to Hybond ECL membranes (Amersham, UK). […] Densitometry readings were obtained using ImageJ v1.50i[58] and protein expression levels were represented as a ratio of protein of interest/p38 loading control normalized to the vehicletreated control sample where appropriate. […]
(Immunoblotting shows a protein as a band on a membrane.)

As for `CC(C)c1cccc(C(C)C)c1[N+]1=Cc2cccc[c]2[Pd-2]1([Cl])[P+](CC[P+](c1ccccc1)(c1ccccc1)[Pd-2]1([Cl])[c]2ccccc2C=[N+]1c1c(C(C)C)cccc1C(C)C)(c1ccccc1)c1ccccc1` (centres unmarked) [AJ-5], in data set [1] (IP 2 mg/kg), the “AUC0-∞” value was 88 ± 67 µmol·min/L, the BA is reported as 49 ± 38%, the Tmax (usually the time at which the peak concentration occurs) is 4.0 ± 0.00 h and the “area under the curve” value stood at 88 min.µM/L. For the same molecule, the Cmax (in general, the maximum level reached in the sampled fluid or tissue) in data set [1] (IP 2 mg/kg) worked out at 30 ± 10 nM. For the same molecule, in data set [1] (IV 2 mg/kg), the “AUC0-∞” value is 179 ± 12 µmol·min/L; the CL worked out at 9.2 mL/min/kg; the Vd – broadly, a proportionality between amount in the body and measured concentration, not a real space – is listed as 8.8 L/kg. The molecule further came in with a t1/2 in data set [1] (IV 2 mg/kg, 2 mg/kg) of 11.2 ± 4.8 h. Moreover, in data set [1] (PO 20 mg/kg), the “AUC0-∞” value amounted to 11 ± 2 µmol·min/L, the BA is reported as 1 ± 0.1%, the Tmax is 0.8 ± 0.3 h and the “area under the curve” value is listed as 11 min.µM/L. In data set [1] (PO 20 mg/kg), this molecule displayed a Cmax of 6 ± 7 nM. For the same molecule, in data set [1] (ratio of AUC), the “Exposure after IP 2 mg/kg compared to PO 20 mg/kg” value is on record as “eight-fold higher”. Also, the “Autophagic flux judged by p62 levels” value in the data set on RH30 cells (RH30, 0.1 µM or IC50, 24 and 48 h) is “appears to reduce autophagic flux”. For the same molecule, the “LC3II in the presence of bafilomycin A1” value with RH30 cells (RH30, IC50 24 h then 200 nM bafilomycin A1 2 h) was “decreased levels of LC3II”.
